Like-named read-outs stand apart in the source and are kept apart here.
Columns and labels:
[1] = tested on: non-small cell lung cancer; assay: Phase I/II clinical trial of IMMU-132, NSCLC; assay type: in vivo, human
Description: Out of 29 patients, there were 8 PR and 13 SD. […] The median time to progression was […], with a range from 1.8 to 15.5+ months and 47% of patients still undergoing treatment. Median PFS was 3.4 months at 8 mg/kg and 3.8 months at 10 mg/kg. However, studies are still ongoing and the median progression-free survival numbers are likely to improve.

[2] = storage stability of lyophilized IMMU-132; assay type: physicochemical
Description: HIC-HPLC results were confirmed by liquid chromatography-mass spectrometry (LC-MS) (not shown).

[3] = tolerability in Swiss-Webster mice; conditions: normal mice, over 1 week
[4] = tested on: Capan-1 human pancreatic cancer xenografts; conditions: 1 and 6 h
Description: SN-38 accumulation was determined in nude mice bearing Capan-1 human pancreatic cancer xenografts (−0.06-0.27 g). […] This dose is MTD in mice. […] This dose is well below the MTD in mice.
At 5 different intervals, 3 animals per group were euthanized. […] Serum and tissue homogenates were extracted and analyzed by reversed-phase HPLC (RP-HPLC).

[5] = tested on: metastatic pancreatic cancer; assay: Phase I/II clinical trial of IMMU-132, PDC; assay type: in vivo, human
[6] = tested on: triple-negative breast cancer; conditions: 58 evaluable mTNBC patients, RECIST1.1 (Bardia et al.); cited from earlier work
p21^Waf1/Cip1 in Calu-3 = assay: p21Waf1/Cip1 expression; assay type: cell-based, human
Text: SN-38 is known to activate several signaling pathways in cells, leading to apoptosis (e.g., Cusack et al., 2001, Cancer Res 61:3535-40; Liu et al. 2009, Cancer Lett 274:47-53; Lagadec et al., 2008, Br J Cancer 98:335-44). Our initial studies examined the expression of 2 proteins involved in early signaling events (p21^Waf1/Cip1 and p53) and 1 late apoptotic event [cleavage of poly-ADP-ribose polymerase (PARP)] in vitro (not shown).

urothelial cancer = assay: Phase I/II clinical trial of IMMU-132, urothelial; assay type: in vivo, human; conditions: 11 assessable patients, 8 or 10 mg/kg
[7] = tested on: stage IV metastatic gastric cancer; assay: therapy of a gastric cancer patient; assay type: in vivo, human; conditions: after another 5 courses
[8] = tested on: SK-MES-1 human squamous cell lung tumors; assay: SK-MES-1 xenograft therapy; assay type: in vivo, nude mice; conditions: 0.4 mg/kg; 28 days
Description: Therapeutic efficacy of hRS7-SN-38 ADC in several solid tumor-xenograft disease models.
Tumor volume (TV) was determined by measurements in 2 dimensions using calipers, with volumes defined as: L×w^2/2, where L is the longest dimension of the tumor and w is the shortest.

recombinant mouse Trop-2 = molecular target: T1, recombinant mouse Trop-2 (Mus musculus, UniProt Q8BGV3); assay: Trop-2 ELISA; assay type: binding
T1 construct: purchased Sino Biological, Inc. 50922-MO8H
T1 sequence (Q8BGV3 25-317): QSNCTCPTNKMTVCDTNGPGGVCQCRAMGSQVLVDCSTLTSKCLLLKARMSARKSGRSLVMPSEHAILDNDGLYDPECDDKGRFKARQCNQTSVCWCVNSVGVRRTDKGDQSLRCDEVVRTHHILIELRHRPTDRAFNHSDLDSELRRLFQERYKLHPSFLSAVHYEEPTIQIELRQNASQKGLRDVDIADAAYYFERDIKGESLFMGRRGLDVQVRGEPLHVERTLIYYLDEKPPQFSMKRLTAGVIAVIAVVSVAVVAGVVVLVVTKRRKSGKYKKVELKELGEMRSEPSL
Description: (§1) Recombinant human Trop-2 with a His-tag (Sino Biological, Inc., Bejing, China; Cat #10428-H09H) and recombinant mouse Trop-2 with a His-Tag (Sino Biological, Inc., Cat #50922-MO8H) were plated onto Ni-NTA Hissorb strips (Qiagen GmbH Cat #35023) at 1 μg for 1 h at room temperature. The plate was washed four times with PBS-Tween (0.05%) wash buffer. Serial dilutions of hRS7 were made in 1% BSA-PBS dilution buffer to a test range of 0.1 ng/mL to 10 μg/mL. The plates were then incubated for 2 h at room temperature before being washed four times followed by the addition of a peroxidase conjugated secondary antibody (goat anti-human, Fc fragment specific; Jackson Immunoresearch Cat #109-036-098). After a 45-min incubation, the plate was washed and a substrate solution (o-phenylenediamine dihydrochloride (OPD); Sigma, Cat #P828) added to all the wells. Plates were incubated in the dark for 15 min before the reaction was stopped with 4N sulfuric acid. The plates were read at 450 nm on Biotek ELX808 plate reader. Data were analyzed and graphed using Prism GraphPad Software (v4.03) (Advanced Graphics Software, Inc.; Encinitas, Calif.).

recombinant human Trop-2 = molecular target: T2, recombinant human Trop-2 (Homo sapiens, UniProt P09758); assay: Trop-2 ELISA; assay type: binding
T2 construct: purchased Sino Biological, Inc. 10428-H09H
T2 sequence (P09758 27-323): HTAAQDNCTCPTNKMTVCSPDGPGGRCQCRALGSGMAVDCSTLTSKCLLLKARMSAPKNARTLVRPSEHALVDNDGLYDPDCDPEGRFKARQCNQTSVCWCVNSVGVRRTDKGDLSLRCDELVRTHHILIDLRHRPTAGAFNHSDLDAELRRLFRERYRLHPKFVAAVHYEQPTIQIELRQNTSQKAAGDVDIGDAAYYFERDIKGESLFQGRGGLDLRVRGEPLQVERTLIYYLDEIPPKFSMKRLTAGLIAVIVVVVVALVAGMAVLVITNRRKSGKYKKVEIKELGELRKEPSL
Description: as §1

COLO 205 tumors = assay: COLO 205 xenograft therapy; conditions: 0.4 mg/kg, q4dx8; 28-day treatment period
Description: NCr female athymic nude (nu/nu) mice, 4 to 8 weeks old, and male Swiss-Webster mice, 10 weeks old, were purchased from Taconic Farms. […] Tumor volume (TV) was determined by measurements in 2 dimensions using calipers, with volumes defined as: L×w^2/2, where L is the longest dimension of the tumor and w is the shortest. […] This dosing frequency reflected a consideration of the conjugate's serum half-life in vitro, to allow a more continuous exposure to the ADC.

IMMU-132
PD ([1]; of 5 assessable patients): 1 | PR ([1]; of 5 assessable patients): 1 | PR ([1]; out of 29 patients, 8 or 10 mg/kg): 8 | primary target lesion at first CT ([1]; person, from 5.6 cm, after 6 doses): 3.2 cm | stability once prepared and lyophilized [2]: stable for several years | cumulative dose without acute toxicity [3]: 24 mg/kg SN-38 | PD (small cell lung cancer; of 4 assessable patients): 2 | PR (small cell lung cancer; of 4 assessable patients): 2 | PR (small cell lung cancer; out of 25 assessable patients, 8 or 10 mg/kg): 6 | free SN-38G lower than free SN-38 in serum [4]: 3- to 7 times | decrease in serum CA19-9 titers ([5]; 3 patients with stable disease): 23 to 72% | duration of stable disease, range ([5]; 8 patients): 8 to 21.4 wks | stable disease ([5]; 13 CT-assessable PDC patients): 62% | median TTP / duration of SD ([5]; CT-assessable PDC patients, 8.0 weeks in last prior therapy): 12.7 wks | TTP, range ([5]; PDC patients): 2 to 21.4 wks | time to progression, range ([5]; Phase I, N=7): 1.0 to 4.0 months | median TTP ([5]; all 14 PDC patients): 11.9 wks | interim objective response rate [6]: 31% | p21^Waf1/CiP1 expression over free SN-38 (p21^Waf1/Cip1 in Calu-3): more than 2 fold | PR (urothelial cancer): 6 | disease reduction by RECIST at follow-up [7]: about 35%

hRS7 IgG
tumor volume (TV) [8]: 1.30±1.08 cm^3 | cross-reactivity (recombinant mouse Trop-2): no cross-reactivity with the murine Trop-2 | Kd (recombinant human Trop-2): 0.3 nM | tumor volume (TV) (COLO 205 tumors): 1.77±0.93 cm^3

Source: US10954305B2 (Immunomedics, Inc., priority 2016, dated 2021)
